These results are taken from patent US8450348B2, “Derivatives of squaric acid with anti-proliferative activity” (Forma TM, LLC, priority 2007, dated 2013).

What all share (type): cell-based
Experiment [1] deals with SW-620. The experiment can be described thus: IC50 determination, SRB assay (Example 62). The conditions noted are these: Homo sapiens, estimated from fitted curve, growth inhibition. As to the method: (§1) 3,000-15,000 cells/well were exposed to the test compounds at a concentration of 1 μM for 48 hours, and cytotoxicity was measured using the SRB assay according to Shekan et al (J Natl Cancer Inst (1990) 82, 1107-112). Briefly, cells were plated in 96 well dishes 24 hours prior to compound addition. The assay was terminated with the addition of cold TCA to a final concentration of 10% and the plates were incubated for one hour at 4° C. The plates were then washed 5 times with water and 100 μl of a Sulforhodamine B solution ([…]) was added to each well. The plate was then incubated for 10 minutes at room temperature before removal of unbound dye by washing with 1% acetic acid. The bound dye was solubilized with 10 mM Trizma base and the absorbance read at OD570. Inhibitory activity of the compounds was calculated as % inhibition compared to cells treated with the solvent (DMSO). Table 2 represents the growth inhibitory activity of certain compounds of the invention across a number of tumor cell lines.
(§2) The assay was performed similar to example 61. However, test compounds were added at various concentrations, such as from 0.001 to about 0.1 μM, from 0.1 to about 10 μM, or from 1 to about 10 μM, as the need may be, in order to estimate the IC50 values. IC50 values were determined by plotting the percentage inhibitory activity for each concentration, fitting a curve using appropriate software and estimating the concentration at which 50% inhibition of growth would occur.

For experiment [2], the system named is MCF7. The experiment in a line: IC50 determination, SRB assay (Example 62). To be noted: Homo sapiens, estimated from fitted curve, growth inhibition. Here is the method:
as §1, §2

The subject of experiment [3] is HCT-116. The experiment in a line: IC50 determination, SRB assay (Example 62). The conditions noted are these: Homo sapiens, estimated from fitted curve, growth inhibition. Here is the method:
as §1, §2

The test system of the next experiment is PC-3. The experiment in a line: SRB assay, % inhibition of tumor cell growth (Example 61). The conditions noted are these: Homo sapiens, 48 hours, vs DMSO-treated cells. Here is the method: as §1
(Sulforhodamine B stains cellular protein and so reports cell mass.)

Experiment [4] has as its system SW-620. The experiment is described as above. The conditions noted are these: Homo sapiens, 48 hours, vs DMSO-treated cells. As to the method: as §1
The subject of experiment [5] is MCF7. Described as above. To be noted: Homo sapiens, 48 hours, vs DMSO-treated cells. Here is the method:
as §1

Experiment [6] has as its system HCT-116. The experiment is described as above. The conditions noted are these: Homo sapiens, 48 hours, vs DMSO-treated cells. Here is the method:
as §1

Experiment [7] relates to A2780. The description is as above. To be noted: Homo sapiens, 48 hours, vs DMSO-treated cells. As to the method: as §1
Experiment [8] deals with A2780. The experiment can be described thus: IC50 determination, SRB assay (Example 62). The conditions noted are these: Homo sapiens, estimated from fitted curve, growth inhibition. Here is the method:
as §1, §2

For another experiment, the system named is A-549. The experiment can be described thus: SRB assay, % inhibition of tumor cell growth (Example 61). The conditions noted are these: Homo sapiens, A549, 48 hours, vs DMSO-treated cells. Here is the method:
as §1

On to `O=c1c(NCCc2ccc(Oc3ccccc3)cc2)c(Nc2cccnc2)c1=O` [SQ-5, 3-[2-(4-Phenoxyphenyl)-ethylamino]-4-(pyridin-3-yl-amino)-cyclobut-3-ene-1,2-dione], for which the IC50 in the experiment on SW-620 [1] is less than 2 µM; in the experiment on MCF7 [2], less than 10 µM; in the experiment on HCT-116 [3], less than 0.1 µM. The inhibition at 1 µM is greater than 50% with PC-3; 0% in the experiment with SW-620 [4]; greater than 50% in the experiment with MCF7 [5]; greater than 80% with HCT-116 [6]; greater than 80% with A2780 [7].

With `O=c1c(NCCCCCCOc2ccc(Cl)cc2)c(Nc2ccncc2)c1=O` [SQ-7B], the IC50 in the experiment on MCF7 [2], in the experiment with HCT-116 [3] and with A2780 [8] was less than 0.1 µM in each case. The inhibition at 1 µM was greater than 50% in the experiment with PC-3, greater than 50% in the experiment on SW-620 [4], greater than 80% with HCT-116 [6] and greater than 80% in the experiment with A2780 [7].

`O=c1c(NCCCCCCOc2ccc(Cl)c(Cl)c2)c(Nc2ccncc2)c1=O` [SQ-15]: the 50% inhibitory concentration (IC50) was less than 0.5 µM in the experiment with SW-620 [1] and less than 0.1 µM with HCT-116 [3]. For the same compound, the inhibition at 1 µM is greater than 50% in the experiment on PC-3; greater than 20% with A-549; greater than 20% in the experiment with SW-620 [4]; greater than 20% in the experiment on MCF7 [5]; greater than 80% in the experiment on HCT-116 [6]; greater than 80% in the experiment on A2780 [7].

`O=c1c(NCc2ccc(Oc3ccccc3)cc2)c(Nc2cccnc2)c1=O` [SQ-34, 3-(4-Phenoxy-benzylamino)-4-(pyridin-3-ylamino)-cyclobut-3-ene-1,2-dione]: the inhibition at 1 µM in the experiment with PC-3 was greater than 0%; with A-549, 0%; in the experiment on SW-620 [4] it was 0%; with HCT-116 [6] it was greater than 20%; in the experiment on A2780 [7], greater than 20%.

One may read the IC50 as the concentration at which inhibition is half-maximal. Broadly, the inhibition is the percentage by which the read-out fell short of the control.
